This note sets out measurements from US20240174603A1 (Rappta Therapeutics Oy, priority 2021, published 2024).

Structures are written as SMILES.

This assay deals with LNCaP cells. Briefly: LNCaP cell viability assay (MTS). The assay is classed as cell-based. To be noted: LNCaP cell line. On the procedure: LNCaP cell line was used for the cell viability assay. LNCaP cells were plated in 96-well plates at a density of 5000 cells per well. After 24 hours of plating, the cells were treated with increasing doses of compound (e.g., compounds 1-269) ranging from 1 μM to 80 μM. Relative cell numbers were analyzed after 48 hours using 3-(4,5-dimethylthiazol-2-yl)-5-(3-carboxymethoxyphenyl)-2-(4-sulfophenyl)-2H-tetrazolium (MTS) assay (Promega) according to the manufacturer's instructions.
The cell viability data was analyzed with GraphPad Prism software. The values were log transformed and analyzed with non-linear regression (curve-fit) using log(inhibitor) vs. response-variable slope (four parameters) and constraining the bottom to equal zero. Unless otherwise indicated, the GI50 values provided in Table 113 correspond to the LNCaP cell viability assays.

For `COc1ccc([C@@H]2[C@@H](CNS(=O)(=O)c3ccc(OC(F)(F)F)cc3)CCN2C)cc1` (racemic) [Compound 106, Rac-N-(((2S,3R)-2-(4-methoxyphenyl)-1-methylpyrrolidin-3-yl)methyl)-4-(trifluoromethoxy)benzenesulfonamide], the GI50 (commonly the concentration at which growth is held to half of that of the control) (Homo sapiens, LNCaP, 48 h) was determined as 24 µM. Under “Homo sapiens, LNCaP, 48 h”, `O=S(=O)(NC(c1cc(Cl)cc(Cl)c1)C1CCCCC1)c1ccc(OC(F)(F)F)cc1` (single isomer, unassigned) [Compound 140, N-(cyclohexyl(3,5-dichlorophenyl)methyl)-4-(trifluoromethoxy)benzenesulfonamide] displayed a GI50 of 19 µM.

For the setting “48 hours”, `O=S(=O)(NC(c1cc(Cl)cc(Cl)c1)C1CCCCC1)c1ccc(OC(F)(F)F)cc1` (single isomer, unassigned) [Compound 141, N-(cyclohexyl(3,5-dichlorophenyl)methyl)-4-(trifluoromethoxy)benzenesulfonamide] had a GI50 of 21.3 µM. In turn, `O=S(=O)(NC(CC1CC1)c1ccc(F)cc1Br)c1ccc(OC(F)(F)F)cc1` (single isomer, unassigned) [Compound 142a, N-(1-(2-bromo-4-fluorophenyl)-2-cyclopropylethyl)-4-(trifluoromethoxy)benzenesulfonamide] gave a GI50 (Homo sapiens, LNCaP, 48 h) of 80 µM. The molecule `O=S(=O)(NC(CC1CC1)c1ccc(F)cc1Br)c1ccc(OC(F)(F)F)cc1` (single isomer, unassigned) [Compound 142b, N-(1-(2-bromo-4-fluorophenyl)-2-cyclopropylethyl)-4-(trifluoromethoxy)benzenesulfonamide] had a GI50 (48 hours) of 49.6 µM. `CN(C)CC(NS(=O)(=O)c1ccc(OC(F)(F)F)cc1)c1ccc(Cl)c(Cl)c1` (single isomer, unassigned) [Compound 148, N-(1-(3,4-dichlorophenyl)-2-(dimethylamino)ethyl)-4-(trifluoromethoxy)benzenesulfonamide]: the concentration for 50% growth inhibition (GI50) (Homo sapiens, LNCaP, 48 h) turned out to be 12.7 µM. In other words, the double-digit micromolar range. Regarding `CN(C)CC(NS(=O)(=O)c1ccc(OC(F)(F)F)cc1)c1ccc(Cl)c(Cl)c1` (single isomer, unassigned) [Compound 149, N-(1-(3,4-dichlorophenyl)-2-(dimethylamino)ethyl)-4-(trifluoromethoxy)benzenesulfonamide], halving of growth (48 hours) (GI50) required 23.9 µM. For the molecule `CN(C)CC(NS(=N)(=O)c1ccc(OC(F)(F)F)cc1)c1ccc(Cl)c(Cl)c1` (single isomer, unassigned) [Compound 165a, N-(1-(3,4-dichlorophenyl)-2-(dimethylamino)ethyl)-4-(trifluoromethoxy)benzenesulfonimidamide], growth (Homo sapiens, LNCaP, 48 h) was halved (GI50) at 46.3 µM.

On to `CN(C)CC(NS(=N)(=O)c1ccc(OC(F)(F)F)cc1)c1ccc(Cl)c(Cl)c1` (single isomer, unassigned) [Compound 165b, N-(1-(3,4-dichlorophenyl)-2-(dimethylamino)ethyl)-4-(trifluoromethoxy)benzenesulfonimidamide], for which the GI50 (48 hours) was 53.8 µM. `CN(C)CC(NS(=O)(=O)c1ccc(Oc2ccccc2)cc1)c1ccc(Cl)c(Cl)c1` (single isomer, unassigned) [Compound 170, N-(1-(3,4-dichlorophenyl)-2-(dimethylamino)ethyl)-4-phenoxybenzenesulfonamide] showed a concentration for 50% growth inhibition (GI50) (Homo sapiens, LNCaP, 48 h) of 13.3 µM. For the setting “48 hours”, `CN(C)CC(NS(=O)(=O)c1ccc(Oc2ccccc2)cc1)c1ccc(Cl)c(Cl)c1` (single isomer, unassigned) [Compound 171, N-(1-(3,4-dichlorophenyl)-2-(dimethylamino)ethyl)-4-phenoxybenzenesulfonamide] gave a 50% growth inhibitory concentration (GI50) of 15.8 µM. In the case of `CN(C)CC(NS(=O)(=O)c1ccc(Oc2ccc(C(F)(F)F)cc2)cc1)c1ccc(Cl)c(Cl)c1` (single isomer, unassigned) [Compound 172, N-(1-(3,4-dichlorophenyl)-2-(dimethylamino)ethyl)-4-(4-(trifluoromethyl)phenoxy)benzenesulfonamide], the GI50 (48 hours) was found to be 6.04 µM. Under “48 hours”, `CN(C)CC(NS(=O)(=O)c1ccc(Oc2ccc(C(F)(F)F)cc2)cc1)c1ccc(Cl)c(Cl)c1` (single isomer, unassigned) [Compound 173, N-(1-(3,4-dichlorophenyl)-2-(dimethylamino)ethyl)-4-(4-(trifluoromethyl)phenoxy)benzenesulfonamide] had a 50% growth inhibitory concentration (GI50) of 13 µM. For the setting “48 hours”, `CN(C)CC(NS(=O)(=O)c1ccc(OC(F)(F)F)cc1)c1cccc(C(F)(F)F)c1` (single isomer, unassigned) [Compound 177, N-(2-(dimethylamino)-1-(3-(trifluoromethyl)phenyl)ethyl)-4-(trifluoromethoxy)benzenesulfonamide] yielded a GI50 of 24.9 µM. In the case of `CN(C)CC(NS(=O)(=O)c1ccc(OC(F)(F)F)cc1)c1cccc(C(F)(F)F)c1` (single isomer, unassigned) [Compound 178, N-(2-(dimethylamino)-1-(3-(trifluoromethyl)phenyl)ethyl)-4-(trifluoromethoxy)benzenesulfonamide], the concentration for 50% growth inhibition (GI50) (48 hours) was 51.2 µM. Under “Homo sapiens, LNCaP, 48 h”, `CN(C)CC(NS(=O)(=O)c1ccc(OC(F)(F)F)cc1)c1ccc(Cl)cc1` (single isomer, unassigned) [Compound 179, N-(1-(4-chlorophenyl)-2-(dimethylamino)ethyl)-4-(trifluoromethoxy)benzenesulfonamide] displayed a 50% growth inhibitory concentration (GI50) of 43.1 µM. Where the note is “48 hours”, `CN(C)CC(NS(=O)(=O)c1ccc(OC(F)(F)F)cc1)c1ccc(Cl)cc1` (single isomer, unassigned) [Compound 180, N-(1-(4-chlorophenyl)-2-(dimethylamino)ethyl)-4-(trifluoromethoxy)benzenesulfonamide] yielded a GI50 of 51.3 µM. In the case of `CN(C)CC(NS(=O)(=O)c1ccc(-c2ccccc2)cc1)c1ccc(Cl)c(Cl)c1` (single isomer, unassigned) [Compound 195, N-(1-(3,4-dichlorophenyl)-2-(dimethylamino)ethyl)-[1,1′-biphenyl]-4-sulfonamide], it took 11.9 µM to inhibit growth (Homo sapiens, LNCaP, 48 h) by half (GI50). This counts as double-digit micromolar. For the molecule `CN(C)CC(NS(=O)(=O)c1ccc(-c2ccccc2)cc1)c1ccc(Cl)c(Cl)c1` (single isomer, unassigned) [Compound 196, N-(1-(3,4-dichlorophenyl)-2-(dimethylamino)ethyl)-[1,1′-biphenyl]-4-sulfonamide], halving of growth (48 hours) (GI50) required 15.9 µM. `CN(C)CC(NS(=O)(=O)c1cccc(-c2ccccc2)c1)c1ccc(Cl)c(Cl)c1` (single isomer, unassigned) [Compound 197, N-(1-(3,4-dichlorophenyl)-2-(dimethylamino)ethyl)-[1,1′-biphenyl]-3-sulfonamide] registered a GI50 (Homo sapiens, LNCaP, 48 h) of 19.3 µM. Regarding `CN(C)CC(NS(=O)(=O)c1cccc(-c2ccccc2)c1)c1ccc(Cl)c(Cl)c1` (single isomer, unassigned) [Compound 198, N-(1-(3,4-dichlorophenyl)-2-(dimethylamino)ethyl)-[1,1′-biphenyl]-3-sulfonamide], where the note is “48 hours”, it took 12.5 µM to inhibit growth by half (GI50).

On to `CCCc1ccc(S(=O)(=O)NC(CN(C)C)c2ccc(Cl)c(Cl)c2)cc1` (single isomer, unassigned) [Compound 199, N-(1-(3,4-dichlorophenyl)-2-(dimethylamino)ethyl)-4-propylbenzenesulfonamide], for which, under “Homo sapiens, LNCaP, 48 h”, the GI50 came to 14.4 µM. This counts as double-digit micromolar.

For the molecule `CCCc1ccc(S(=O)(=O)NC(CN(C)C)c2ccc(Cl)c(Cl)c2)cc1` (single isomer, unassigned) [Compound 200, N-(1-(3,4-dichlorophenyl)-2-(dimethylamino)ethyl)-4-propylbenzenesulfonamide], the 50% growth inhibitory concentration (GI50) (48 hours) came to 17.8 µM.
